In patent US10851097B2, “4,5,6,7-tetrahydro-1H-imidazo[4,5-c]pyridine and 1,4,5,6,7,8-hexahydroimidazo[4,5-d]azepine derivatives as janus kinase inhibitors” (Topivert Pharma Limited, priority 2015, dated 2020):
Like-named read-outs stand apart in the source and are kept apart here.

Assay: Systemic pharmacokinetics and total colon tissue distribution after single oral administration in mice
Assay type: in vivo, male C57BL/6 mice
Settings: for Kp: total colon tissue / plasma, po, 10 mg/kg
Protocol: Studies were conducted by Sai Life Sciences (Hinjewadi, Pune, India) to investigate the systemic pharmacokinetics and total colon tissue distribution of compounds of the invention following a single oral administration in male C57BL/6 mice.
A group of twenty four male mice were administered with a solution of test compound formulated at a dose of 10 mg/10 mL/kg in aqueous hydroxypropyl-β-cyclodextrin (20% w/v in water). Blood samples (approximately 60 μL) were collected from retro-orbital plexus of each mouse under light isoflurane anaesthesia such that the samples were obtained at 0.5, 1, 2, 4, 6, 8, 12 and 24 hr. The blood samples were collected from a set of three mice at each time point in a labeled micro centrifuge tube containing K2EDTA as anticoagulant. Plasma samples were separated by centrifugation at 4000 rpm for 10 min and stored below −70° C. until bioanalysis. After collection of blood sample, animals were humanely euthanized by carbon dioxide asphyxiation to collect total colon tissues. The colons were flushed with cold PBS (pH7.4) to remove contents. The total colon tissues were homogenized with cold PBS (pH7.4) of twice the weight of colon tissue and stored below −70° C. Total volume was three times the total colon tissue weights. All samples were processed for analysis by protein precipitation using acetonitrile and analyzed with a fit-for-purpose LC-MS/MS method. Pharmacokinetic parameters were calculated using the non-compartmental analysis tool of Phoenix WinNonlin® (Version 6.3).

[1] = male, C57BL/6, mouse, oral 10 mg/kg, plasma, read-out: Mean plasma concentration
[2] = male, C57BL/6, mouse, total colon tissue, oral 10 mg/kg, total colon, read-out: Total colon level

concentration at 0.5 h [1]: 2.4 ng/mL
concentration at 1 h [1]: 2.6 ng/mL
concentration at 2 h [1]: 1.9 ng/mL
concentration at 4 h [1]: 1.1 ng/mL
concentration at 6 h [1]: 3.4 ng/mL
concentration at 8 h [1]: 4.8 ng/mL
concentration at 12 h [1]: 1.2 ng/mL
concentration at 24 h [1]: 0 µg/mL
AUC(0-t) (male, C57BL/6, mouse, oral 10 mg/kg, plasma, read-out: AUC0-24 h P (plasma)): 0.02 µg·h/mL
Cmax (male, C57BL/6, mouse, oral 10 mg/kg, plasma, read-out: Cmax P (plasma)): 4.8 ng/mL
Kp (male, C57BL/6, mouse, read-out: AUC0-24 h ratio (total colon to plasma)): 4850
Kp (male, C57BL/6, mouse, read-out: Cmax ratio (total colon to plasma)): 3170
concentration at 0.5 h [2]: 431 ng/g
concentration at 1 h [2]: 1160 ng/g
concentration at 2 h [2]: 5450 ng/g
concentration at 4 h [2]: 7230 ng/g
concentration at 6 h [2]: 4820 ng/g
concentration at 8 h [2]: 15200 ng/g
concentration at 12 h [2]: 2220 ng/g
concentration at 24 h [2]: 44.8 ng/g
Cmax (male, C57BL/6, mouse, total colon tissue, oral 10 mg/kg, total colon, read-out: Cmax C (total colon)): 15200 ng/g
Systemic plasma exposure following oral administration (oral 10 mg/kg, plasma, in words): very low
AUC0-24 h C (total colon) (oral 10 mg/kg, total colon): 97,062 h · ng/g
Colonic concentrations following oral administration (oral 10 mg/kg, total colon, in words): substantial colonic concentrations
Compound: CCc1cc(O)c(F)cc1-c1ccc2c(-c3nc4c([nH]3)CCN(C(=O)c3cnc(N(C)CCN5CCCC5=O)cn3)C4)n[nH]c2c1 [Example 2(k), 1-(2-((5-(2-(6-(2-ethyl-5-fluoro-4-hydroxyphenyl)-1H-indazol-3-yl)-4,5,6,7-tetrahydro-1H-imidazo[4,5-c]pyridine-5-carbonyl)pyrazin-2-yl)(methyl)amino)ethyl)pyrrolidin-2-one]
